Patent publication US20220395451A1, “NOVEL SKIN CARE COMPOSITION” (BEIERSDORF AG, priority 2019, published 2022)
Where “and” joins values, the source holds several entries; their conditions need not be identical. Equal entries are not always repeated.

What was measured:
C. acnes strain C3 = experiment: Minimum inhibitory concentration (MIC) of cosmetic excipients, strain C3; assay type: cell-based, Cutibacterium acnes; conditions: % w/vol; anaerobic incubation 3 days at 37° C.; growth scored visually
Experimental: (§1) In microbiology, the MIC is the lowest concentration of a chemical which prevents visible growth of bacterium. The resulted MIC value depends both on the microorganism and the test compound. The MIC is determined by preparing concentrations series of the test compound in vitro, incubating the solutions with the separate batches of cultured bacteria, and measuring the results using agar dilution or broth microdilution. For the experiments with C. acnes strains C3 and K8, media comprising yeast extract soy peptone and dextrose were used. The MIC is determined by turbidity.
(§2) A total of 125 cosmetic excipients were tested for their compatibility with C. acnes strains C3 and K8. Hydrophilic compounds were tested in a 96-well plate liquid broth format, poorly soluble compounds were pre-dissolved in DMSO before dilution in liquid broth and hydrophobic or solid compounds were tested in an agar well diffusion test assay. The different dilutions of the test excipients in media were prepared in Falcon tubes and then distributed in a deep well plate using a multistepper. Each well received 1.2 ml and was subsequently inoculated with 120 μl of C. acnes bacteria suspension (strain C3 and K8). From the deep well plate 200 μl were transferred in each well of a clear 96 well replicate plate. The leftover was discarded. The plates were then incubated anaerobically for 3 days at 37° C. Following incubation, the test plates were visually examined and wells were scored for growth or complete growth inhibition to define the minimum inhibitory concentration.
(§3) These excipients are listed in the below table with their compatibility values for C. acnes strains C3 and K8. The compatibility values represent the MIC value of the listed ingredients with the tested C. acnes strains. At this concentration [% w/vol] the tested compound starts interfering with the growth of the tested strains. The compounds can be used in formulations at concentrations below this concentration.

C. acnes strain K8 = experiment: Minimum inhibitory concentration (MIC) of cosmetic excipients, strain K8; assay type: cell-based, Cutibacterium acnes; conditions: % w/vol; anaerobic incubation 3 days at 37° C.; growth scored visually
Experimental: as §1, §2, §3

Compound	COMPATABILITY VALUE C3 (MIC) (C. acnes strain C3)	COMPATABILITY VALUE C3 (MIC) (C. acnes strain K8)	COM[…] C3 (MIC) (C. acnes strain C3) [%]	COM[…] C3 (MIC) (C. acnes strain K8) [%]
CC(CO)CO [methylpropanediol]	4.00%	4.00%		
O=C(O)CC(O)(CC(=O)O)C(=O)O [citric acid]	0.33%	0.08%		
Citric acid/citrate			1.30	1.30
CC(=O)Oc1c(C)c(C)c2c(c1C)CCC(C)(CCC[C@H](C)CCC[C@H](C)CCCC(C)C)O2 (stereo partly shown) [tocopheryl acetate]	1.00%	1.00%		
CCCCCCC(O)CO (stereo not shown) [caprylyl glycol]	0.18%	0.18%		
tocopherol	1.50% and 10.00%	1.50% and 10.00%		
CCO [ethanol]		3.75%		
